These results are taken from US8404683B2, “Inhibitors of the interaction between MDM2 and P53” (Janssen Pharmaceutical N.V., priority 2004, dated 2013).

Molecules are shown by their SMILES.

This assay concerns U87MG cells. Put plainly: Proliferation assay (MTT-based) on U87MG tumour cells. The settings on record: Homo sapiens, U-87 MG, 96 h, 4 days of incubation, negative log value of the IC50-value, read-out: cell proliferation pIC50 (converted). On the procedure:
U87MG cells are human glioblastoma cells with wild type p53. In this cell line MDM2 tightly controls p53 expression.
Cellular activity of the compounds of formula (I) was determined on U87MG tumour cells using a colorimetric assay for cell toxicity or survival (see example C.2).
All compounds tested were dissolved in DMSO and further dilutions were made in culture medium. Final DMSO concentrations never exceeded 0.1% (v/v) in cell proliferation assays. Controls contained U87MG cells and DMSO without compound and blanks contained DMSO but no cells.
U87MG cells were seeded in 96-well cell culture plates at 3000 cells/well/100 μl. 24 hours later, medium was changed and compound and/or solvent were added to a final volume of 200 μl. Following 4 days of incubation, medium was replaced by 200 μl fresh medium and cell growth was assessed using a MTT-based assay. Therefore, 25 μl of the MTT solution (0.5% MTT research grade from Serva in phosphate-buffered saline) was added to each well and the cells were further incubated for 2 hours at 37° C. The medium was then carefully aspirated and the blue MTT-formazan product was dissolved by adding to each well 25 μl 0.1 M glycin and 100 μl DMSO. The plates were shaken for another 10 min on a micro plate shaker before reading absorbance at 540 nm by a Biorad micro plate reader.
Within an experiment, the results for each experimental condition are the mean of 3 replicate wells. For initial screening purposes, compounds were tested at a single fixed concentration of 10^−5 M. For active compounds, the experiments were repeated to establish full concentration-response curves. For each experiment, controls (containing no drug) and a blank incubation (containing no cells or drugs) were run in parallel. The blank value was subtracted from all control and sample values. For each sample, the mean value for cell growth (in absorbance units) was expressed as a percentage of the mean value for cell growth of the control. When appropriate, IC50-values (concentration of the drug, needed to reduce cell growth to 50% of the control) were computed using probit analysis for graded data (Finney, D. J., Probit Analyses, 2nd Ed. Chapter 10, Graded Responses, Cambridge University Press, Cambridge 1962). Herein the effects of test compounds are expressed as pIC50 (the negative log value of the IC50-value) (see table F-2).
Consider `Clc1ccc2[nH]cc(CCNc3ccc(Nc4ccncc4)cc3)c2c1` [Compound 182], for which the IC50 is 1.58 µM.
`O=C(O)CCNCc1cc(Nc2ccc(NCCc3c[nH]c4ccccc34)cc2)ccn1` [Compound 97]: the IC50 was greater than 10 µM.
As for `CN(C)CCN(Cc1ccccc1)C(=O)C(Cc1c[nH]c2ccccc12)Nc1ccc(Nc2ccncc2)cc1` (centres unmarked) [Compound 211], the IC50 is 0.0631 µM.
Then `O=C(NCCNCc1cc(Nc2ccc(NCCc3c[nH]c4ccccc34)cc2)ccn1)OCc1ccccc1` [Compound 92], with 3.16 µM; and `CCOc1cc(Nc2ccnc(CO)c2)ccc1NCCc1c[nH]c2cc(OC)ccc12` [Compound 69], with 0.1 µM.
Then `CC(=O)OCc1cc(Nc2ccc(NCCc3c[nH]c4ccccc34)cc2)ccn1` [Compound 151], with greater than 10 µM; and `CC(C)(CO)C1CCN(C(=O)C(Cc2c[nH]c3ccccc23)Nc2ccc(Nc3ccncc3)cc2)CC1` (centres unmarked) [Compound 220], with 6.31 µM.
As for `OCc1cnccc1Nc1ccc(NCCc2c[nH]c3ccccc23)cc1` [Compound 123], the IC50 was 5.01 µM.
The same measure for `COC(=O)CCNC(C)c1cc(Nc2ccc(NCCc3c[nH]c4ccccc34)cc2)ccn1` (centres unmarked) [Compound 146]: 7.94 µM; for `COC(=O)CCNCc1cc(Nc2ccc(NCCc3c[nH]c4ccccc34)cc2)ccn1` [Compound 96]: greater than 10 µM.
Then `Cn1cc(CCN(c2ccncc2)c2ccc(Nc3ccncc3)cc2)c2ccccc21` [Compound 10], with 1.26 µM; and `COc1ccc2c(CCNc3ccc(Nc4ccncc4)cc3)c[nH]c2c1` [Compound 54], with 0.126 µM; and `CC1(CO)CCCN(C(=O)C(Cc2c[nH]c3ccccc23)Nc2ccc(Nc3ccncc3)cc2)C1` (centres unmarked) [Compound 219], with 3.98 µM.
The same measure for `OCc1cc(Nc2ccc(NCCc3c[nH]c4ccccc34)cc2)c2ccccc2n1` [Compound 14]: 0.0398 µM; for `Brc1ccc2c(CCNc3ccc(Nc4ccncc4)cc3)c[nH]c2c1` [Compound 192]: greater than 10 µM.
Take `O=C(NCCCCCO)C(Cc1c[nH]c2ccccc12)Nc1ccc(Nc2ccncc2)cc1` (centres unmarked) [Compound 118]: the IC50 is greater than 10 µM.
Then `CN(c1ccncc1)c1ccc(NCCc2c[nH]c3ccccc23)cc1` [Compound 83], with 3.16 µM.
Take `c1ccc2c(CCNc3ccc(Nc4ccnc(CN5CCCC5)c4)cc3)c[nH]c2c1` [Compound 53]: the IC50 is 0.631 µM.
Take `COCCOCc1cc(Nc2ccc(NCCc3c[nH]c4ccccc34)cc2)ccn1` [Compound 169]: the IC50 is 0.398 µM.
The same measure for `OCCOCc1cc(Nc2ccc(NCCc3c[nH]c4ccccc34)cc2)ccn1` [Compound 99]: 2.51 µM.
With `OCCNCc1cc(Nc2ccc(NCCc3c[nH]c4ccccc34)cc2)ccn1` [Compound 152], the IC50 was 10 µM.
Consider `CCOc1cc(Nc2ccnc3ccccc23)ccc1NCCc1c[nH]c2ccccc12` [Compound 35], for which the IC50 is 0.0398 µM.
The same measure for `COC(=O)c1cc(Nc2ccc(NCCc3c[nH]c4cc(OC)ccc34)cc2)ccn1` [Compound 178]: 1.58 µM; for `CCC(O)(CC)c1cc(Nc2ccc(NCCc3c[nH]c4ccccc34)cc2)ccn1` [Compound 128]: 3.16 µM; for `COc1ccc2nccc(Nc3ccc(NCCc4c[nH]c5ccccc45)cc3)c2c1` [Compound 24]: less than 0.01 µM.
Consider `O=C(O)Cc1cc(Nc2ccc(NCCc3c[nH]c4ccccc34)cc2)ccn1` [Compound 70], for which the IC50 is 0.251 µM.
Then `CC(=O)NCc1cc(Nc2ccc(NCCc3c[nH]c4ccccc34)cc2)ccn1` [Compound 206], with 3.16 µM; and `CCOC(=O)/C=C/c1cnccc1Nc1ccc(NCCc2c[nH]c3ccccc23)cc1` [Compound 126], with greater than 10 µM.
Then `CC(O)c1cc(Nc2ccc(NCCc3c[nH]c4ccccc34)cc2)ccn1` (centres unmarked) [Compound 104], with 3.16 µM.
Then `CC(C)(C)C(O)c1cc(Nc2ccc(NCCc3c[nH]c4ccccc34)cc2)ccn1` (centres unmarked) [Compound 138], with 1.58 µM.
For `CN1CCN(Cc2cc(Nc3ccc(NCCc4c[nH]c5ccccc45)cc3)ccn2)CC1` [Compound 160], the IC50 was 0.398 µM.
For the compound `c1cnc2[nH]cc(CCNc3ccc(Nc4ccncc4)cc3)c2c1` [Compound 190], the IC50 is 3.98 µM.
Turning to `OCCCNCc1cc(Nc2ccc(NCCc3c[nH]c4ccccc34)cc2)ccn1` [Compound 156], the IC50 was 3.16 µM.
`CC(NCc1ccccc1)c1cc(Nc2ccc(NCCc3c[nH]c4ccccc34)cc2)ccn1` (centres unmarked) [Compound 140]: the IC50 was 2.51 µM.
The same measure for `O=C(O)c1cc(Nc2ccc(NCCc3c[nH]c4ccccc34)cc2)ccn1` [Compound 58]: greater than 10 µM; for `Fc1ccc2c(CCNc3ccc(Nc4ccncc4)cc3)c[nH]c2c1` [Compound 184]: 1 µM; for `c1ccc(CCCCNCc2cc(Nc3ccc(NCCc4c[nH]c5ccccc45)cc3)ccn2)cc1` [Compound 170]: 3.16 µM.
With `CCOC(C)c1cc(Nc2ccc(NCCc3c[nH]c4ccccc34)cc2)ccn1` (centres unmarked) [Compound 149], the IC50 was 2 µM.
The same measure for `CC(=O)OC(C)(C)c1cc(Nc2ccc(NCCc3c[nH]c4ccccc34)cc2)ccn1` [Compound 202]: 3.16 µM.
The same measure for `c1ccc(CC(CNc2ccc(Nc3ccncc3)cc2)c2c[nH]c3ccccc23)cc1` (centres unmarked) [Compound 101]: 2.51 µM; for `O=C(C(Cc1c[nH]c2ccccc12)Nc1ccc(Nc2ccncc2)cc1)N1CCCC1CO` (centres unmarked) [Compound 208]: greater than 10 µM.
Regarding `OCCCCNCc1cc(Nc2ccc(NCCc3c[nH]c4ccccc34)cc2)ccn1` [Compound 165], the IC50 was 5.01 µM.
Take `O=C(C(Cc1c[nH]c2ccccc12)Nc1ccc(Nc2ccncc2)cc1)N1CCC(CO)C1` (centres unmarked) [Compound 209]: the IC50 was greater than 10 µM.
The same measure for `O=C(C(Cc1c[nH]c2ccccc12)Nc1ccc(Nc2ccncc2)cc1)N1CCCC(CO)C1` (centres unmarked) [Compound 218]: greater than 10 µM.
The same measure for `COc1ccc2[nH]cc(CCNc3ccc(Nc4ccnc5ccccc45)cc3)c2c1` [Compound 32]: 0.158 µM; for `O=C(CCc1ccccc1)NCc1cc(Nc2ccc(NCCc3c[nH]c4ccccc34)cc2)ccn1` [Compound 131]: 2.51 µM; for `Cc1cccc2c(Nc3ccc(NCCc4c[nH]c5ccccc45)cc3)ccnc12` [Compound 22]: 0.02 µM.
Then `CNC(=O)c1cc(Nc2ccc(NCCc3c[nH]c4ccccc34)cc2)ccn1` [Compound 63], with 1.58 µM.
Regarding `COCC1(O)CCN(C(=O)C(Cc2c[nH]c3ccccc23)Nc2ccc(Nc3ccncc3)cc2)CC1` (centres unmarked) [Compound 222], the IC50 is 3.98 µM.
The same measure for `COC(C)c1cc(Nc2ccc(NCCc3c[nH]c4ccccc34)cc2)ccn1` (centres unmarked) [Compound 150]: 3.16 µM; for `CCC(O)c1cc(Nc2ccc(NCCc3c[nH]c4ccccc34)cc2)ccn1` (centres unmarked) [Compound 203]: 3.16 µM.
On to `COC(=O)c1cc(Nc2ccc(NCCc3c[nH]c4ccccc34)cc2)cc(C(=O)OC)n1` [Compound 109], for which the IC50 is greater than 10 µM.
The same measure for `c1ccc2c(CNc3ccc(NCCc4c[nH]c5ccccc45)cc3)ccnc2c1` [Compound 120]: 5.01 µM; for `O=C(C(Cc1c[nH]c2ccccc12)Nc1ccc(Nc2ccncc2)cc1)N1CCC(CCO)C1` (centres unmarked) [Compound 210]: greater than 10 µM; for `CC(N)c1cc(Nc2ccc(NCCc3c[nH]c4ccccc34)cc2)ccn1` (centres unmarked) [Compound 141]: 3.98 µM.
For the compound `COc1ccc2c(CCNc3ccc(Nc4ccnc(CO)c4)cc3)c[nH]c2c1` [Compound 180], the IC50 was 0.631 µM.
Then `O=C(C(Cc1c[nH]c2ccccc12)Nc1ccc(Nc2ccncc2)cc1)N(CCCCO)Cc1ccccc1` (centres unmarked) [Compound 207], with 0.794 µM; and `Cc1cc(Nc2ccncc2)ccc1NCCc1c[nH]c2ccccc12` [Compound 47], with 0.158 µM; and `CCNC(C)c1cc(Nc2ccc(NCCc3c[nH]c4ccccc34)cc2)ccn1` (centres unmarked) [Compound 143], with 3.16 µM.
For `CCNCc1cc(Nc2ccc(NCCc3c[nH]c4ccccc34)cc2)ccn1` [Compound 155], the IC50 is 2 µM.
On to `c1ccc(CNCc2cc(Nc3ccc(NCCc4c[nH]c5ccccc45)cc3)ccn2)cc1` [Compound 168], for which the IC50 is 2 µM.
The same measure for `c1ccc(CCCNCc2cc(Nc3ccc(NCCc4c[nH]c5ccccc45)cc3)ccn2)cc1` [Compound 164]: 2.51 µM; for `Cc1[nH]c2ccccc2c1CCNc1ccc(Nc2ccncc2)cc1` [Compound 77]: 3.16 µM.
Then `CC(NCCCc1ccccc1)c1cc(Nc2ccc(NCCc3c[nH]c4ccccc34)cc2)ccn1` (centres unmarked) [Compound 148], with 3.16 µM.
Consider `O=C(C(Cc1c[nH]c2ccccc12)Nc1ccc(Nc2ccncc2)cc1)N1CCN(CCO)CC1` (centres unmarked) [Compound 114], for which the IC50 was greater than 10 µM.
